Data published in patent US20030166537A1, “Use of GDNF for treating corneal defects” (Biopharm Gesellschaft Zur Biotechnologischen Entwicklung …, priority 1999, published 2003).
Values belong to the molecule of their own block, whether it stands above or below them.

Columns and labels:
[1] = system: primary human corneal epithelial cells; assay: in vitro wound healing assay (scratch wound), primary cells; assay type: cell-based; settings: 18 h, control less than 10%
Description: (§1) For in vitro wound healing assays primary corneal epithelial cells and cells from the corneal epithelial cell line were seeded at a density of 5×10^5 onto 60 mm plastic dishes with 2 mm grid (Sarstedt, Numbrecht, Germany) and cultured for 2 days until subconfluency. For experiments with artemin primary cultured rabbit corneal epithelial cells were used. These cells had been isolated with Dispase (1,2 U/ml) and trypsin/EDTA. Rabbit cells had been cultured in medium 500 with additives (Cascade Biologies).
(§2) The cell layer was injured under the microscope by inducing several parallel scratches with a soft plastic cell scrubber (Falcon, Becton and Dickinson, Heidelberg, Germany). The tip of the scrubber was cut and measured about 1 mm and consequently the width of the scratch in the cell layer was also about 1 mm. Selected areas in the dishes were marked with a very fine marker pen and consecutive images were taken at different time points at 5×magnification under an inverted phase contrast microscope (Axiovert 25, Zeiss, Jena, Germany) equipped with a video camera. Following the experimental injury dishes were incubated in SHEM medium either containing no growth factors (control) or containing either GDNF (250 ng/ml) (recombinant human GDNF expressed in E. coli), NGF (250 ng/ml) (Boehringer Mannheim, Germany) or EGF ([…]). For experiments investigating artemin cells were cultured in medium 500 without additives and 250 ng artemin was added. For each condition four representative areas were evaluated within three dishes. The mean diameter of the scratch in each representative area was set as 100% at the beginning of the experiment. 18 hours later the mean diameter of the same scratch was calculated again and expressed in percent of the diameter at the beginning of the experiment.

[2] = system: primary rabbit corneal epithelial cells; assay: single cell clonal growth assay (colony formation, clonal proliferation); assay type: cell-based; settings: 10 ng/ml; day 6; control 40±20
Description: In order to evaluate the effect of GDNF on corneal proliferation, recombinant human GDNF was used (R&D, Minneapolis, Minn., USA). For the evaluation of the effect on corneal epithelial proliferaton a single cell clonal growth model was utilized which allows to determine the effect of the given growth factor on both colony formation as well as clonal expansion (Kruse et al., 1991). New Zealand white rabbits were housed and treated according to the ARVO Resolution of Animals in Research and under observation of German Federal Laws and the laws of the State of Baden-Württemberg. Prior to sacrifice with an intravenous overdose of pentobarbital, they received an intramuscular injection of xylazine hydrochloride and ketamine hydrochloride. The details of the clonal growth assay are described in Kruse et al. (1991). 5000 viable cells were seeded in each 16 mm dish in serum-free medium MCDB 151 with a supplement (S) of insulin (5 μg/ml), transferrin (5 μg/ml), selenium (5 ng/ml) and hydrocortisone (5 μg/ml) (all from Sigma, Deisenhofen, Germany). […] This quantification was facilitated by the use of dishes which contained a grit on the bottom which is roughly 2 mm wide (from Sarstedt, Newton, N.C., USA). For data collection the entire surface area of four randomly selected dishes for each condition was screened. Furthermore, the number of cells per colony was determined in 75 randomly selected colonies for each condition. Furthermore, the total number of cells/dish was calculated in order to carry out an evaluation for artemin. In order to stimulate the cellular proliferation, GDNF (50 or 200 ng/ml) or artemin (250 ng/ml) was added to the medium. In order to estimate the rate of proliferation after 12 days (a time when neighbouring colonies started to grow into each other and, therefore, prevented numerical quantification) dishes were fixed in −20° C. methanol and stained with methylene blue.
All experiments examining the effect of GDNF on corneal proliferation were performed in triplicate with cells from different donors. The influence of growth factor on colony formation, colony size and cell number was studied using one-way analysis of variance. […] Student's t-test was employed to determine which differences were significant after analysis of variance.

[3] = system: primary rabbit corneal epithelial cells; assay: in vitro wound healing assay (scratch wound), artemin; assay type: cell-based; settings: 10 ng/ml; within 6 h; vs control
Description: as §1
(§3) The cell layer was injured under the microscope by inducing several parallel scratches with a soft plastic cell scrubber (Falcon, Becton and Dickinson, Heidelberg, Germany). The tip of the scrubber was cut and measured about 1 mm and consequently the width of the scratch in the cell layer was also about 1 mm. Selected areas in the dishes were marked with a very fine marker pen and consecutive images were taken at different time points at 5×magnification under an inverted phase contrast microscope (Axiovert 25, Zeiss, Jena, Germany) equipped with a video camera. […] For each condition four representative areas were evaluated within three dishes. […] 18 hours later the mean diameter of the same scratch was calculated again and expressed in percent of the diameter at the beginning of the experiment.

[4] = system: corneal epithelial cells from the SV40 transformed cell line; assay: in vitro wound healing assay (scratch wound), cell line; assay type: cell-based, human; settings: 18 h, control 20%±4.5
Description: as §1, §2

[5] = system: FAK, Pyk2, cRaf, MEK1, Erk 1 and 2, Elk, RSK; assay: western blot of phosphorylated intracellular signaling proteins in corneal epithelial cells; assay type: cell-based, human; settings: preincubation with herbimycin A for two hours
Description: In order to investigate which protein kinase cascades are activated by GDNF and artemin, corneal epithelial cells from the cell line were seeded at a density of 5×10^5 cells/75 cm^2 and cultured in SHEM with 10% FBS for one day. Cultures were then washed with PBS and incubated in serum-free SHEM without additives or with GDNF (200 ng/ml) or with artemin (250 ng) for 10 to 40 minutes. After washing with PBS, cultured cells were solubilized in lysis buffer containing 50 mM Tris2Cl (pH8.0), 150 mM NaCl, 0.02% sodium azide, 100 μg/ml phenylmethylsulfonyl fluoride, 1 mM Na3VO4, 1% Triton X-100 and a mixture of several protease inhibitors [complete™, Boehringer Mannheim (1 tablet/30 ml buffer)]. 80 μg total protein per lane was fractionated by NuPAGE 10% SDS-MOPS-Bis-Tris gel or NuPAGE 3-8% Tris-acetate gel (all from NOVEX, San Diego, Calif.) and blotted onto a nitrocellulose membrane. Phosphorylated proteins were detected with phospho-specific antibodies and visualized with the ECL western blot analysis system (Amersham). Antibodies against phospho-Raf(ser259), phospho-MEK1/2(ser217/221), phospho-MAPK (Erk1/2) (thr202/tyr204), phospho-p90 ribosomal S6 kinase (RSK) (ser381) and phospho-Elk-1(ser383) were obtained from New England Biolabs (Beverly, Mass.). Antibody against phospho-FAK (tyr397/tyr407/tyr576/tyr577/tyr861/tyr925) and phospho-Pyk2 (tyr402/tyr579/tyr/580/tyr881) were purchased from Biosource (Camarillo, Calif., USA). A monoclonal antibody against phospho-tyrosine came from Sigma (Deisenhofen, Germany).

[6] = molecular target: T1, Ret (Homo sapiens, UniProt P07949); assay: immuno-precipitation and western blot of tyrosine-phosphorylated Ret in cultured corneal epithelial cells; assay type: cell-based; settings: cells pretreated with herbimycin A, then GDNF 10 minutes
T1 construct: The level of phosphorylated Ret (approximately 150 kD) in cultured corneal epithelial cells (control) was low prior to addition of GDNF; endogenous in cells; host or cells: SV40-transformed human corneal epithelial cell line (Araki-Sasaki et al., 1995)

[7] = system: corneal epithelial cells; assay: in vitro wound healing model with herbimycin A; assay type: cell-based; settings: 10 μM Herbimycin A in presence of 250 ng/ml GDNF; 18 hours
Description: as §1
as §3, with “experiment. […]” for “experiment.”

[8] = system: ERK1, ERK2, JNK1 and JNK2; assay: western blot of phosphorylated MAP kinases in cultured human corneal stromal keratocytes; assay type: cell-based; settings: for phosphorylation of ERK1 and ERK2: 200 ng/ml factor vs control; for phosphorylation of JNK1: vs serum-free medium
Description: (§4) In order to evaluate the effect of GDNF and other neurotrophic factors on the activation of signal transduction pathways in cultured corneal epithelial and stromal keratocytes, western blots were performed for detecting an accumulation of phosphorylated MAP kinases ERK and JNK in the presence of GDNF, NGF and BDNF. Human stromal keratocytes were cultured in RPMI 1640 medium containing L-glutamine (glutaMAX) or DMEM with 10% FBS for one day and starved in serum-free medium for another day. Cultures were then washed with PBS and incubated in serum-free DMEM without additives or with recombinant human GDNF (200 ng/ml), recombinant human NGF (200 ng/ml) and recombinant human BDNF (200 ng/ml) (all obtained from R & D Systems, Mineapolis, Minn., USA) for 30 min. Some cultures were incubated with an inhibitor of MAP kinases (PD 98059, Torcris Cookson Ballwin, Mo., USA) at 100 μM for 1 h prior to exposure to neurotrophines. After washing with PBS, culture cells were solubilized in lysis buffer containing 50 mM Tris-Cl (pH 8.0), 150 mM NaCl, 0.02% sodium azide, 100 μg/ml PMSF, 1% Triton X-100 and a mixture of several protein inhibitors (Complete®, Boehringer Mannheim) (one tablet/50 ml buffer). 50 μg total protein per lane was fractionated by a 10% STS-MOPS NUPAGE Bis-tris gel (NOVEX, San Diego, Calif., USA) and blotted onto nitrocellulose membrane. Membranes were stained with diluted polyclonal antibodies against ERK1, ERK2, JNK1 and JNK2 (Santa Cruz Biotechnology, Santa Cruz, Calif., USA). Also a polyclonal antibody was used which recognizes the […] form of either ERK1 and ERK2 which was raised against the catalytic core of the phosphorylated threonine residue 183 and tyrosine residue 185 of mammalian ERK2. Similarily, a polyclonal antibody recognizing the phosphorylated form of JNK1 and JNK2 was used (both from Promega). In the last step the membranes were visualized with the ECL western blot analysis system (Amersham).

[9] = system: ERK1, ERK2, JNK1 and JNK2; assay: western blot of phosphorylated MAP kinases in cultured human corneal epithelium; assay type: cell-based; settings: for phosphorylation of ERK1 and ERK2: 200 ng/ml factor vs serum-free control medium; for phosphorylation of ERK1 and ERK2 / phosphorylation of JNK1/2: human epithelial cells; for phosphorylation of JNK1/2: vs control
Description: as §4

T1 sequence (P07949 29-1114): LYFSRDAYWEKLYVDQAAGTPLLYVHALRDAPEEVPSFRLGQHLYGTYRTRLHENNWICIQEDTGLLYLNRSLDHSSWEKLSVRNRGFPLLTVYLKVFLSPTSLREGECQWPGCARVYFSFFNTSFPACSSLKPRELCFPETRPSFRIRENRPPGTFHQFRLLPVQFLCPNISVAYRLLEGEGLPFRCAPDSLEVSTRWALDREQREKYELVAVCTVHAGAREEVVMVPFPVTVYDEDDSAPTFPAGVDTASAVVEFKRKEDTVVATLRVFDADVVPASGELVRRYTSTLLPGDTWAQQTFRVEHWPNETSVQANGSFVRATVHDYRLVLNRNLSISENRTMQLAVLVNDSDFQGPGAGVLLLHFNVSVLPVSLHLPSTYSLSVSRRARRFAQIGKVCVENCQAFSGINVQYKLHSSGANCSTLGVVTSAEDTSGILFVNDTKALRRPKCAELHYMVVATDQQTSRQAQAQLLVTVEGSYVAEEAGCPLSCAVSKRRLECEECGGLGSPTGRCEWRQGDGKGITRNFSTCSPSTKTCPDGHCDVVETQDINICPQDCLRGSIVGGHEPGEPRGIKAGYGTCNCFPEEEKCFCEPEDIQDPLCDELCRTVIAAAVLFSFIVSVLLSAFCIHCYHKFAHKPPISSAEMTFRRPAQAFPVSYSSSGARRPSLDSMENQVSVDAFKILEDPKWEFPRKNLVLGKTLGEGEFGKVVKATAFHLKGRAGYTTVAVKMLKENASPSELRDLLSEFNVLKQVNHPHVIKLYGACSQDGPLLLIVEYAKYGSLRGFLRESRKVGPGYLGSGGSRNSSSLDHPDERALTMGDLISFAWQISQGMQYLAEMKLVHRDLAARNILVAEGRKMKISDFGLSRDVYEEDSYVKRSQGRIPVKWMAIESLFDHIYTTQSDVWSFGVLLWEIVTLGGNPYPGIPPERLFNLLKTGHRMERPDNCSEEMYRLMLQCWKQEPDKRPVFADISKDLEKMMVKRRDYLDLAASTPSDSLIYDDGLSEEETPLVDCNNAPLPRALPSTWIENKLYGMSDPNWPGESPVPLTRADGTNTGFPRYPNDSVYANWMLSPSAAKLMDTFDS

Molecule: EGF: growth factor used as positive control at 10 ng/ml
gap in the cell monolayer filled ([1]; 10 ng/ml): 19.0%±8.6
total number of colonies [2]: 58±18
in vitro wound healing [3]: significant increase
gap in the cell monolayer filled ([4]; 10 ng/ml): 44.6±9%

GDNF-dependent tyrosine phosphorylation of Ret [6]: specifically inhibited
Molecule: CO[C@H]1[C@@H](OC)C[C@H](C)[C@@H](OC)C2=CC(=O)C=C(NC(=O)/C(C)=C/C=C\[C@H](OC)[C@@H](OC(N)=O)/C(C)=C/[C@@H]1C)C2=O [herbimycin A, reference compound]
GDNF-dependent phosphorylation of Erk [5]: significantly decreased
GDNF-dependent phosphorylation of FAK [5]: significantly decreased
GDNF-dependent phosphorylation of cRaf [5]: significantly decreased
wound gap closed [7]: 19.2±5.5%

Molecule: COc1cccc(-c2cc(=O)c3ccccc3o2)c1N [PD 98059, reference compound]
effect on phosphorylation of ERK1 in presence of BDNF ([8]; PD 98059 with BDNF 200 ng/ml): remained unchanged
effect on GDNF-induced phosphorylation of ERK1 ([8]; PD 98059 with GDNF 200 ng/ml): inhibited
effect on NGF-induced phosphorylation of ERK1 ([8]; PD 98059 with NGF 200 ng/ml): inhibited
effect on BDNF-induced phosphorylation of ERK1 and ERK2 ([9]; PD 98059 100 μM 1 h before BDNF 200 ng/ml, epithelial cells): not inhibited
effect on GDNF-induced phosphorylation of ERK1 and ERK2 ([9]; PD 98059 100 μM 1 h before GDNF 200 ng/ml, epithelial cells): prevented
effect on NGF-induced phosphorylation of ERK1 and ERK2 ([9]; PD 98059 100 μM 1 h before NGF 200 ng/ml, epithelial cells): prevented

Molecule: NGF: recombinant human NGF, neurotrophic factor used as comparison / positive control
gap in the cell monolayer filled ([1]; 250 ng/ml): 19.6%±3.1
activated JNK2 [8]: not induced
phosphorylation of ERK1 and ERK2 [8]: induced
phosphorylation of JNK1 [8]: weakly induced
phosphorylation of ERK1 and ERK2 [9]: increased
phosphorylation of JNK1/2 [9]: not induced
gap in the cell monolayer filled ([4]; 250 ng/ml): 27%±7.1

B1: BDNF: recombinant human BDNF, neurotrophic factor used for comparison (protein, UniProt P23560 19-247, looked up)
Neurotrophic factor BDNF …: APMKEANIRGQGGLAYPGVRTHGTLESVNGPKAGSRGLTSLADTFEHVIEELLDEDQKVRPNEENNKDADLYTSRVMLSSQVPLEPPLLFLLEEYKNYLDAANMSMRVRRHSDPARRGELSVCDSISEWVTAADKKTAVDMSGGTVTVLEKVPVSKGQLKQYFYETKCNPMGYTKEGCRGIDKRHWNSQCRTTQSYVRALTMDSKKRIGWRFIRIDTSCVCTLTIKRGR
activated JNK2 [8]: not induced
phosphorylation of ERK1 and ERK2 [8]: did not induce
phosphorylation of JNK1 [8]: weakly induced
phosphorylation of ERK1 and ERK2 [9]: increased
phosphorylation of JNK1/2 [9]: not induced
